From patent US8822407B2, “Preparation of conjugates comprising adenine derivatives and allergenic proteins and their use for specific immunotherapy of allengenic diseases” (Universita' Degli Studi di Firenze, priority 2010, dated 2014) come the findings set out here.

One assay concerns purified B cells. The assay can be described thus: B cell activation (tritiated thymidine incorporation). The assay is classed as cell-based, human. On the procedure: Circulating mononuclear cells (MNC) are isolated by Ficoll-Hypaque density gradient from buffy coats of healthy donors (Servizio Immunotrasfusionale e terapie cellulari, Azienda Ospedaliero Universitaria Pediatrica A. Meyer, Firenze). 200×10^6 MNC are then separated using the commercial CD19 isolation kit (Miltenyi) by the addition of 400 μl iron microbead-bound anti-CD19 monoclonal antibody followed by magnetic separation on LS column. 20×10^6 B cells are isolated by positive selection and are extensively washed by the use of calcium- and magnesium-free PBS and cultured in triplicates at the concentration of 1×10^6/ml/well in complete medium plus 10% foetal calf serum in 96-U plates. […] Plates are incubated in humidified atmosphere at 37° C. for 72 hrs and at the end 0.5 μCi tritiated thymidine is added to each well for further 16 hrs. The incorporated radioactivity is measured as already described in step (f) of Example 4.

For a further assay, the target named is T1, TLR9 (Homo sapiens, UniProt Q9NR96).
T1 construct: expressed in transfected cells; host or cells: HEK293 (transient Nucleofection, Amaxa)
T1 sequence (Q9NR96 26-1032): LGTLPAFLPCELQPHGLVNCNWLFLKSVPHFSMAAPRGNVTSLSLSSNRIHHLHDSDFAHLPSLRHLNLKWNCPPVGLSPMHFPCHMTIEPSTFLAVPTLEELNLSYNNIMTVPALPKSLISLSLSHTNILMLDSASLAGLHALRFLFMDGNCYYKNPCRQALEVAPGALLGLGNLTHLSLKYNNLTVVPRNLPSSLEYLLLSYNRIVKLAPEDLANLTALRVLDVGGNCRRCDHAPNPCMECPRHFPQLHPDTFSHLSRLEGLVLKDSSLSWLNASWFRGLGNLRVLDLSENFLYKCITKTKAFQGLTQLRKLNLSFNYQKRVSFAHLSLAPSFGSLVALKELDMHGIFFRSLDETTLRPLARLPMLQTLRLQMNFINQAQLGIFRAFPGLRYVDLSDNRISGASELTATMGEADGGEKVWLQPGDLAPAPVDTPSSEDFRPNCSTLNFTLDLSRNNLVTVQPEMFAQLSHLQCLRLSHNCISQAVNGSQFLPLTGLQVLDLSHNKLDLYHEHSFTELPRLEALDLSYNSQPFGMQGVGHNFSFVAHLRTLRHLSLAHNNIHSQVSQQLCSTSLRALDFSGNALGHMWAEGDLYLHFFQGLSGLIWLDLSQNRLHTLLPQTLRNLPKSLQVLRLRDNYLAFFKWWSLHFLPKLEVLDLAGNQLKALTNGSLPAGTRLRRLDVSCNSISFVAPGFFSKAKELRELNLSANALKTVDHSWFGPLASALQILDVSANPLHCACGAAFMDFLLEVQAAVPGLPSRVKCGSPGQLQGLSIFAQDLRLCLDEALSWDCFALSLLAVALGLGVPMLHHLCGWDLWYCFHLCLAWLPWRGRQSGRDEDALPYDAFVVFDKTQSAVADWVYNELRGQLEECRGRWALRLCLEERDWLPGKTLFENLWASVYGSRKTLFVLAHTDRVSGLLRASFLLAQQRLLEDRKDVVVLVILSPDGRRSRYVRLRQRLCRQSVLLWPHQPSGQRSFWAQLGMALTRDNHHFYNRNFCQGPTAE
As to the kind of experiment: TLR9-transfected HEK293 cells, NF-kB luciferase reporter. To be noted: CpG-ODN 2006 1.3 μM; data not shown. Type of assay: cell-based. On the procedure: (§1) HEK293 cells are detached by trypsin from the plastic surface of the culture bottle, extensively washed with calcium and magnesium-free PBS, counted and adjusted at the concentration 1×10^6 cells/tube in polypropylene V-bottomed tubes. After the final wash, the cells are pelleted and 100 μl transfection buffer (Amaxa) is added together with […], TLR7, TLR8 or TLR9-encoding and ELAM-1 promoter NF-kB luciferase reporter plasmids. The mixture thus obtained is transferred in special cuvettes and transient transfection is obtained in a special apparatus which is able to directly introduce genetic material into the nucleus (Nucleofection®, Amaxa GmbH). The cells are then recovered and cultured at 1×10^5/ml in 48-flat bottomed plates in E-MEM medium plus 5% foetal calf serum for 18 hrs. […] Finally the luciferase activity is measured in the cellular lysates by a commercial kit (Promega).
Background: In a reporter assay the amount or activity of a reporter protein is the signal.

Another assay concerns the target T2, TLR3 (Homo sapiens, UniProt O15455).
T2 construct: expressed in transfected cells; host or cells: HEK293 (transient Nucleofection, Amaxa)
T2 sequence (O15455 24-904): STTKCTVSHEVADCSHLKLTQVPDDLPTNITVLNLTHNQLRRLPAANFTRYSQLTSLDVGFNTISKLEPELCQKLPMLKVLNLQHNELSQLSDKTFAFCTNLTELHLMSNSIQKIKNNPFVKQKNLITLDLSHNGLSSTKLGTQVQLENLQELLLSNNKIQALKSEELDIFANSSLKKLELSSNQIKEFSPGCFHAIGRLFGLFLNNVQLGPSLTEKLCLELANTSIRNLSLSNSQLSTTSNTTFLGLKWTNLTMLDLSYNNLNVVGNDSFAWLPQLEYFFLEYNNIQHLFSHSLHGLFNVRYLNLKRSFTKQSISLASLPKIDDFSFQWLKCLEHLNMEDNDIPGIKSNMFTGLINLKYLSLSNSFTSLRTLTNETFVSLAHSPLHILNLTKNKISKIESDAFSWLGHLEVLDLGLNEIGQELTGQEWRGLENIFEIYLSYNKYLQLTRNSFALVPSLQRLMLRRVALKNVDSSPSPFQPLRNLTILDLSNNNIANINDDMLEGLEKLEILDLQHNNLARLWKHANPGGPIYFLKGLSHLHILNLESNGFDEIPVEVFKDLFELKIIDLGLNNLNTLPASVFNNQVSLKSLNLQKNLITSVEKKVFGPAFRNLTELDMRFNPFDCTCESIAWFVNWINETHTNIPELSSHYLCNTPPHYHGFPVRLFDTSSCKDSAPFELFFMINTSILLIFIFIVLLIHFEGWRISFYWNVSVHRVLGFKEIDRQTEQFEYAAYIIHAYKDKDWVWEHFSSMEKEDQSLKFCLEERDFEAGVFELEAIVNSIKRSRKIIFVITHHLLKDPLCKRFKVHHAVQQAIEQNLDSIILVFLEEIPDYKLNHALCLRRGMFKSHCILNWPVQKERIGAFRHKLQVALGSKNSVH
As to the kind of experiment: TLR3-transfected HEK293 cells, NF-kB luciferase reporter. Type of assay: cell-based. To be noted: Poly I:C 50 μg/ml; data not shown. On the procedure: as §1

The next assay relates to purified CD14+ cells. The assay can be described thus: Cytokine production by purified CD14+ cells (ELISA of supernatants, 36 hrs). Type of assay: cell-based, human. On the procedure: Circulating mononuclear cells (MNC) are isolated by density gradient (Ficoll-Hypaque) using buffy coats from 14 normal donors (Servizio Immunotrasfusionale e terapie cellulari, Azienda Ospedaliera Universitaria A. Meyer, Firenze). 200×10^6 MNC are separated by the use of a commercial kit (CD14 isolation kit, Miltenyi) by the addition of 400 μl anti-CD14 monoclonal antibody bound to iron beads followed by isolation on magnetic columns (LS column). 50×10^6 monocytes are recovered by positive selection and are extensively washed with calcium and magnesium-free sterile PBS and then seeded in complete medium plus 10% foetal calf serum in 24 flat bottomed plates at the concentration of 1×10^6/ml. […] The plates are incubated for 36 hrs at 37° C. in 5% CO2 humidified atmosphere and the supernatants are collected after centrifugation at 1200 rpm, aliquoted and then stored at −20° C. up to the assay. […]
For the determination of cytokines and chemokines of the innate immunity, commercial ELISAs have been used: IL-12p40 (Cytoscreen, Biosource Int, Camarillo, Calif.), IFN-alfa (Cytoscreen), TNF-alfa (Cytoscreen), IL-10 (Pharmingen), IL-6 and CXCL10 (R&D System). 100 μl/well of single supernatants are incubated in flat bottomed plates as specified by the productors and the amounts of the single cytokines are expressed as pg/ml on the basis of a reference curve by using recombinant cytokines.
For orientation: An ELISA detects its analyte on a solid surface through an enzyme-linked reagent.

The test system of a further assay is BALB/C and C57BL/6 mice. As to the kind of experiment: Modification of antibody response in sensitized mice (serum IgE). The assay is classed as in vivo. To be noted: mice sensitized i.p. with 10 μg in alum. On the procedure:
Ten BALB/C and ten C57BL/6 6-8 wk-old female mice (Charles River) have been intraperitoneally sensitized at day 0 and d 7 with 10 μg OVA (5 animals per strain) or OVA-conj (5 animals per strain) in the presence of alum. At d 14 and d 18 animals are stimulated intratracheally with 10 μg OVA and after 24 hrs unspecific bronchial hyperreactivity is measured administering first an aerosolized PBS solution to obtain the standard value and then an aerosolized solution containing increasing concentrations of methacolin for 3 min (6.25-12.5-25-50 mg/ml). The pletismograph in which the animal is inserted is able to monitor the values of airflow resistance.
Serum levels of total and OVA-specific IgE have been determined at d 14 and d 18 (before the intratracheal allergic stimulation) in sensitized animals by the use of commercial kits.

The mark [1] stands for this setting: Table A, Donor #1, LPS, dose not printed in table (100 ng/ml elsewhere in the source).
Where [2] appears, read: Table A, Donor #2, LPS, dose not printed in table (100 ng/ml elsewhere in the source).
The mark [3] stands for this setting: Table E, Donor #1, dose 0.1 μg/ml.
[4] abbreviates: Table E, Donor #2, dose 0.1 μg/ml.

For CpG-ODN 2006 [reference compound], the “Stimulation index (mean ± SE)” value in the assay on purified B cells (B cell proliferation, concentration 10 μg/ml) came out at 90.3 ± 7.5. For the same molecule, the “proliferation of purified B lymphocytes (in words)” value in the assay with purified B cells (thymidine incorporation) was “high levels of incorporation of radioactive thymidine”. At TLR9, the “NF-κB expression in TLR9-transfected HEK293 cells” value was “able to induce NF-κB expression”.

On to Poly I:C, for which the “NF-κB expression in TLR3-expressing HEK293 cells” value at TLR3 is on record as “activates TLR3-expressing cells”.

As to “lipopolysaccharide [LPS, reference compound]”, in the assay with purified CD14+ cells (setting [1]), the IL-6 production worked out at 12905 pg/mL, the IL-10 production was determined as 8140 pg/mL, the IL-12p40 production came to 2725 pg/mL and the TNF-alfa production stood at 5331 pg/mL. In the assay on purified CD14+ cells (setting [2]), this molecule gave an IL-6 production of 3125 pg/mL, an IL-10 production of 1155 pg/mL, an IL-12p40 production of 6311 pg/mL and a TNF-alfa production of 4619 pg/mL. In addition, in the assay with purified CD14+ cells (Table B, dose 1 μg/ml), the “IL-6 production (mean ± SE)” value was determined as 17.5 ± 4.9 ng/mL, the “IL-10 production (mean ± SE)” value was 7.9 ± 1.9 ng/mL, the “IL-12p40 production (mean ± SE)” value was determined as 3.8 ± 1.7 ng/mL and the “TNF-alfa production (mean ± SE)” value came to 7.6 ± 2.7 ng/mL. In the assay with purified CD14+ cells (setting [3]), this molecule registered an IL-6 production of 27235 pg/mL, an IL-10 production of 530 pg/mL, an IL-12p40 production of 5627 pg/mL and a TNF-alfa production of 3136 pg/mL. Moreover, in the assay with purified CD14+ cells (setting [4]), the IL-6 production was 39499 pg/mL, the IL-10 production came to 3000 pg/mL, the IL-12p40 production stood at 10522 pg/mL and the TNF-alfa production is 14061 pg/mL. In addition, the “cytokine production from purified CD14+ cells (in words)” value in the assay on purified CD14+ cells (text to Tables A and B) was “relevant amounts of modulatory (IL-12) and inflammatory (TNF-alfa and IL-6) cytokines”.

B1: ovalbumin (protein, UniProt P01012 2-386, looked up)
Ovalbumin: GSIGAASMEFCFDVFKELKVHHANENIFYCPIAIMSALAMVYLGAKDSTRTQINKVVRFDKLPGFGDSIEAQCGTSVNVHSSLRDILNQITKPNDVYSFSLASRLYAEERYPILPEYLQCVKELYRGGLEPINFQTAADQARELINSWVESQTNGIIRNVLQPSSVDSQTAMVLVNAIVFKGLWEKAFKDEDTQAMPFRVTEQESKPVQMMYQIGLFRVASMASEKMKILELPFASGTMSMLVLLPDEVSGLEQLESIINFEKLTEWTSSNVMEERKIKVYLPRMKMEEKYNLTSVLMAMGITDVFSSSANLSGISSAESLKISQAVHAAHAEINEAGREVVGSAEAGVDAASVSEEFRADHPFLFCIKHIATNAVLFFGRCVSP
notes: ovalbumin (OVA grade V)
Take B1: the “Total IgE (mean ± SE)” value in the assay with BALB/C and C57BL/6 mice (d14 pre-challenge) is 966 ± 268 pg/mL; in the assay with BALB/C and C57BL/6 mice (d18 post-challenge) it was 680 ± 234 pg/mL.
